# pIC50: −log10 of the molar value.
# What was measured:
# [1] = test system: rat striatum acetylcholine (ACh); assay: effect on rat striatal acetylcholine (ACh) levels; assay type: in vivo; conditions: 0.5 h, ± SEM, vehicle 61.0 ± 2.33, * p < 0.05
# Procedure: ACh concentrations were determined as described below. Each
# Results were analyzed by a oneway
# [2] = test system: angiotensin II receptors (AT1/AT2) of corpus luteum; assay: inhibition of 125I-angiotensin II binding, corpus luteum; parameters: species or system rabbit
# [3] = test system: angiotensin II receptors (AT1/AT2) of granulosa cell; conditions: 1 μM; 125I-angiotensin II; adapted from Pucell et al., Endocrinology 1991; cited from earlier work
# [4] = target: T1, AT2 receptor (rabbit uterus receptor preparations) (Oryctolagus cuniculus, UniProt G1T351); assay: displacement of 3H-angiotensin II from rabbit uterus receptor preparations; assay type: binding; conditions: read-out: IC50 Values in Rabbit Uterine Preparations
# T1 construct: cell membrane preparations derived from rabbit uterus and corpus luteum; from tissue; host or cells: rabbit uterus, cell membrane preparation
# T1 sequence (G1T351 1-363): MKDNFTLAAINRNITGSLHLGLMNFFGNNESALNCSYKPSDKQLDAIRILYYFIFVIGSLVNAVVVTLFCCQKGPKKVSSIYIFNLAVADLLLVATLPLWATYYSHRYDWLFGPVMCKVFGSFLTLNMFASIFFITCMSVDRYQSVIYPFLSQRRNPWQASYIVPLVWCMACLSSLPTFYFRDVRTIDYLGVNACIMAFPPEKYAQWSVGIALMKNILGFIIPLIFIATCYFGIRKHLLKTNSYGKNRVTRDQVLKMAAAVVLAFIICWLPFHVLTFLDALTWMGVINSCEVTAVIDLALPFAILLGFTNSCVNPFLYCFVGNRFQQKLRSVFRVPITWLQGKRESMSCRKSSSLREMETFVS
# Source text: AT2 receptors are known to exist in organs of the female reproductive system. […] More specifically, AT2 receptors are densely located on granulosa cells in atretic follicles of the ovary.
# [5] = Barnes et al., Neuroreport 1991, cited from earlier work
# [6] = test system: angiotensin II induced secretion of AVP; conditions: isolated rat explants; Schiavone et al., Hypertension 1991; cited from earlier work
# [7] = target: T2, AT2 receptor (whole rat brain) (Rattus norvegicus, UniProt P35351); assay: angiotensin II receptor binding in whole rat brain (DTT protocol); conditions: whole rat brain; DTT included to eliminate AT1 binding; read-out: IC50 Values in whole Rat Brain Preparations
# T2 construct: IC50 Values in whole Rat Brain Preparations; from tissue; host or cells: whole rat brain
# T2 sequence (P35351 1-363): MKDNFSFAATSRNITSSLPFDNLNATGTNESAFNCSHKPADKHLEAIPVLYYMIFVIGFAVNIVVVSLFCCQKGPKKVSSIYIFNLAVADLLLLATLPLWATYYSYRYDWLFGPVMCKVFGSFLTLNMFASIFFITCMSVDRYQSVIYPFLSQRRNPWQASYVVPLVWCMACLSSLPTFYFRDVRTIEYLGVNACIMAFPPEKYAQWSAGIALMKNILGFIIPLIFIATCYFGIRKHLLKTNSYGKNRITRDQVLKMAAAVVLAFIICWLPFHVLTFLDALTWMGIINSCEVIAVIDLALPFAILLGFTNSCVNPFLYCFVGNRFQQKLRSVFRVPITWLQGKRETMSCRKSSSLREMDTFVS
# Source text: Since receptor-specific binding in whole brain is low and is a mixture of two subtypes, an alternative protocol (Bennett and Snyder, Eur. J. Pharmacol., 67, 11-25) was used. This method includes DTT and thereby eliminates binding at AT1 receptors, thus-allowing evaluation of AT2 receptor events.
# [8] = whole body autoradiography in rats; assay type: in vivo, rat
# Procedure: The iodination was initiated by addition of chloramine-T (30 μg, 132 nMol) that was diluted to a concentration of 0.05 M in the same buffer as above. After shaking at room temperature for one minute the reaction was quenched with sodium metabisulfite (10 mg). […] This labeled material was reconstituted in 5% aqueous dextrose containing 30 mg/mL of the disodium salt of unlabeled Example 12 and adjusted to pH 9 by addition of several μL of 1 mM NaOH.
# Male and female Sprague-Dawley rats (Charles River, Wilmington, average weight 281 g) were used in the autoradiography studies. Animals were on a fixed light cycle with unrestricted access to normal rat chow and water prior to the experiment. […] Animals were killed at 15 or 60 minutes postdose by halothane anesthesia and were rapidly frozen in acetone with dry ice. Carcasses were subsequently embedded in methylcellulose ice for whole-body sectioning and autoradiography. Autoradiograms were analyzed by computer assisted densitometry.
# Results of the autoradiographical experiments are summarized in Table X. A relative scale of radioactivity is assigned with background equal to 0 and the most dense reading (liver and intestines) equal to 10. […] Another site that is highly labeled is the ovarian follicle. It is the most highly labeled non-excretory organ. All other tissues show weaker radioactivity.
# [9] = test system: angiotensin II receptors (AT1 and AT2), rat brain regions; assay: displacement of 125I-angiotensin II from receptor preparations of rat brain regions; assay type: binding; conditions: antagonist 10 μM
# Procedure: The concentration of all three antagonist compounds in these experiments is 1 μM (above the maximal effect concentration).
# [10] = 30 mg/kg i.v. rat, scale 0-10, represents excretion
compound,measurement,setting,value
"CCCCc1nc(Cl)c(CO)n1Cc1ccc(-c2ccccc2-c2nn[nH]n2)cc1 [DUP 753, reference compound]","ACh concentration, rat striatum",[1]; 30 mg/kg IP,67.5 ± 5.71 nM/g
same,"% Inhibition with 1 μM Antagonist, Corpus luteum","[2]; 1 μM, 125I-angiotensin II, data from Warner-Lambert Co.",97%
same,"displacement of 125I-angiotensin II, corpus luteum (in words)",[2]; Table IX,displaces nearly all of the radioligand
same,"% Inhibition with 1 μM Antagonist, Granulosa cell",[3],3%
"Cc1cc(Cn2cnc3c2C[C@@H](C(=O)O)N(C(=O)C(c2ccccc2)c2ccccc2)C3)ccc1N [Example 2, (S)-(-)-1-[(4-amino-3-methylphenyl)-methyl]-5-(diphenylacetyl)-4,5,6,7-tetrahydro-1H-imidazo[4,5-c]pyridine-6-carboxylic acid]",pIC50,[4],7.49
same,reversal of scopolamine-induced amnesia,[5],reverses scopalamine-induced amnesia
same,cognition enhancement,[5]; rodent behavioral models,does indeed possess cognition enhancing actions in rodent behavioral models
same,antagonism of angiotensin II induced AVP secretion,[6],antagonizing the angiotensin II induced secretion of AVP
"COc1ccc(Cn2cnc3c2C[C@@H](C(=O)O)N(C(=O)C(c2ccccc2)c2ccccc2)C3)cc1C [Example 3, (S)-(-)-5-(diphenylacetyl)-4,5,6,7-tetrahydro-1-[(4-methoxy-3-methyl-phenyl)methyl]-1H-imidazo[4,5-c]pyridine-6-carboxylic acid]",pIC50,[4],7.59
O=C(O)[C@@H]1Cc2c(ncn2CCC23CC4CC(CC(C4)C2)C3)CN1C(=O)C(c1ccccc1)c1ccccc1 [Example 4],pIC50,[4],7.04
same,pIC50,[7],6.74
"Cc1cc(Cn2cnc3c2C[C@@H](C(=O)O)N(C(=O)C(c2ccc(F)cc2)c2ccc(F)cc2)C3)ccc1N(C)C [Example 5, (S)-(-)-5-[bis(4-fluorophenyl)acetyl)-1-[[4-(dimethylamino)-3-methyl-phenyl]methyl]-4,5,6,7-tetrahydro-1H-imidazo[4,5-c]pyridine-6-carboxylic acid]",pIC50,[4],7.42
COc1ccc(Cn2cnc3c2C[C@@H](C(=O)O)N(C(=O)C2c4ccccc4-c4ccccc42)C3)cc1C [Example 6],pIC50,[4],5.92
Cc1cc(Cn2cnc3c2C[C@@H](C(=O)O)N(C(=O)C(c2ccccc2)c2ccccc2)C3)ccc1[N+](=O)[O-] [Example 7],pIC50,[4],7.17
"O=C(O)[C@@H]1Cc2c(ncn2Cc2ccccc2)CN1C(=O)C(c1ccccc1)c1ccccc1 [Example 8, (S)-(-)-5-(diphenylacetyl)-4,5,6,7-tetrahydro-1-(phenylmethyl)-1H-imidazo[4,5-c]pyridine-6-carboxylic acid]",pIC50,[4],7.13
same,pIC50,[7],5.42
"COc1ccc(Cn2cnc3c2C[C@@H](C(=O)O)N(C(=O)Cc2ccccc2)C3)cc1C [Example 9, (S)-(-)-4,5,6,7-tetrahydro-1-[(4-methoxy-3-methylphenyl)methyl]-5-(phenylacetyl)-1H-imidazo-[4,5-c]pyridine-6-carboxylic acid]",pIC50,[4],7.02
"COc1ccc(Cn2cnc3c2C[C@@H](C(=O)O)N(C(=O)C(c2ccc(Cl)cc2)c2ccc(Cl)cc2)C3)cc1C [Example 10, (S)-(-)-5-[bis(4-chlorophenyl)acetyl]-4,5,6,7-tetrahydro-1-[(4-methoxy-3-methylphenyl)methyl]-1H-imidazo-[4,5-c]pyridine-6-carboxylic acid]",pIC50,[4],6.92
"CC(=O)Nc1ccc(Cn2cnc3c2C[C@@H](C(=O)O)N(C(=O)C(c2ccccc2)c2ccccc2)C3)cc1C [Example 11, (S)-(-)-[[4-(acetylamino)-3-methylphenyl]methyl]-5-(diphenylacetyl)-4,5,6,7-tetrahydro-1H-imidazo-[4,5-c]pyridine-6-carboxylic acid]",pIC50,[4],6.82
"Cc1cc(Cn2cnc3c2C[C@@H](C(=O)O)N(C(=O)C(c2ccccc2)c2ccccc2)C3)cc(I)c1O [Example 12, (S)-(-)-5-(diphenylacetyl)-1-[(4-hydroxy-3-iodo-5-methylphenyl)methyl]-4,5,6,7-tetrahydro-1H-imidazo[4,5-c]pyridine-6-carboxylic acid]",pIC50,[4],7.60
same,pIC50,[7],6.24
same,tissue distribution (in words),"[8]; rat, autoradiography",selectively distribute to the ovarian follicle
"O=C(O)[C@@H]1Cc2c(ncn2Cc2ccc(C(F)(F)F)cc2)CN1C(=O)C(c1ccccc1)c1ccccc1 [Example 15, (S)-(-)-5-(diphenylacetyl)-4,5,6,7-tetrahydro-1-[[4-(trifluoromethyl)-phenyl]methyl]-1H-imidazo[4,5-c]pyridine-6-carboxylic acid]",pIC50,[7],6.11
"Cc1cccc(Cn2cnc3c2C[C@@H](C(=O)O)N(C(=O)C(c2ccccc2)c2ccccc2)C3)c1 [Example 16, (S)-(-)-5-(diphenylacetyl)-4,5,6,7-tetrahydro-1-[(3-methylphenyl)methyl]-1H-imidazo[4,5-c]pyridine-6-carboxylic acid]",pIC50,[7],5.80
"O=C(CCCN1CCC(O)(c2ccc(Cl)cc2)CC1)c1ccc(F)cc1 [Haloperidol, haloperidol, reference compound]","ACh concentration, rat striatum",[1]; 2 mg/kg IP,36.9 ± 3.27 nM/g
"CNCC(=O)N[C@@H](CCCN=C(N)N)C(=O)N[C@H](C(=O)N[C@@H](Cc1ccc(O)cc1)C(=O)N[C@H](C(=O)N[C@@H](Cc1cnc[nH]1)C(=O)N1CCC[C@H]1C(=O)N[C@@H](C)C(=O)O)C(C)C)C(C)C [SAR, saralasin, reference compound]","125I-Angiotensin II Bound, Brain Stem","[9]; rat brain stem, total 2124",288 cpm
same,"125I-Angiotensin II Bound, Cerebellum","[9]; rat cerebellum, total 571",269 cpm
same,"125I-Angiotensin II Bound, Cortex","[9]; rat cortex, total 766",336 cpm
same,"125I-Angiotensin II Bound, Cortical Neurons","[9]; rat cortical neurons, total 2647",293 cpm
same,"125I-Angiotensin II Bound, Striatal Membrane","[9]; rat striatal membrane, total 2462",1295 cpm
Cc1cc(Cn2cnc3c2C[C@@H](C(=O)O)N(C(=O)C(c2ccccc2)c2ccccc2)C3)cc([125I])c1O [^125 CI-Example 12],"Relative Radioactivity, Adrenal","[8]; 30 mg/kg i.v. rat, scale 0-10",3
same,"Relative Radioactivity, Blood","[8]; 30 mg/kg i.v. rat, scale 0-10",4
same,"Relative Radioactivity, Heart","[8]; 30 mg/kg i.v. rat, scale 0-10",3
same,"Relative Radioactivity, Kidney","[8]; 30 mg/kg i.v. rat, scale 0-10",4-8
same,"Relative Radioactivity, Lung","[8]; 30 mg/kg i.v. rat, scale 0-10",4
same,"Relative Radioactivity, Ovarian follicle","[8]; 30 mg/kg i.v. rat, scale 0-10",9
same,"Relative Radioactivity, Ovary (non-follicular)","[8]; 30 mg/kg i.v. rat, scale 0-10",3-5
same,"Relative Radioactivity, Salivary gland","[8]; 30 mg/kg i.v. rat, scale 0-10",6-7
same,"Relative Radioactivity, Thymus","[8]; 30 mg/kg i.v. rat, scale 0-10",3
same,"Relative Radioactivity, Uterus","[8]; 30 mg/kg i.v. rat, scale 0-10",2-3
same,"Relative Radioactivity, Bladder",[8]; [10],4-6
same,"Relative Radioactivity, Intestines",[8]; [10],10
same,"Relative Radioactivity, Liver",[8]; [10],10
same,"Relative Radioactivity, Testicle","[8]; 30 mg/kg i.v. rat, scale background 0 to most dense 10",1-2
